# Assays:
# Assay in all cases: Test Example 1: foliar treatment, growth inhibition rate on 14th day
# Type in all cases: in vivo
# Conditions in all cases: active ingredient amount 31 g/ha, 14th day after application
# [1] = tested on: redroot pigweed (Amaranthus retroflexus L.)
# Method in brief: (§1)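 Visual 0–100% inhibition scoring (100 = complete kill) at 14 days after foliar treatment of soil-grown seedlings at species-specific leaf stages, with the compound sprayed as a wettable powder or emulsifiable concentrate dilution.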
# [2] = tested on: soybean (Glycine max Merr.)
# Method in brief: (§2)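 Inhibition was rated visually 14 days after treatment on a 0–100% scale, where 100 is complete kill. Compounds, formulated as wettable powders or emulsifiable concentrates at set active-ingredient amounts, were diluted to 1,000 L/ha with 0.1 vol% spreader. The dilutions were sprayed post-emergence onto soybean (primary leaf), rice (0.2–2.7 leaf), wild oat (0.4–1.2) and green foxtail (0.5–3.2).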
# [3] = tested on: wild oat (Avena fatua L.)
# Method in brief: as §2
# [4] = tested on: crabgrass (Digitaria sanquinalis L.)
# Method in brief: as §1
# [5] = tested on: italian ryegrass (Lolium multiflorum Lam.)
# Method in brief: as §1
# [6] = tested on: green foxtail (Setaria viridis L.)
# Method in brief: as §2
# [7] = tested on: wheat (Triticum aestivum L.)
# Method in brief: as §1
# [8] = tested on: barnyardgrass (Echinochloa crus-qalli L.)
# Method in brief: as §1
# corn (Zea mays L.) = tested on: corn (Zea mays L.)
# Method in brief: as §1
# rice (Oryza sativa L.) = tested on: rice (Oryza sativa L.)
# Method in brief: as §2
# [9] = visual, 0 = non-treated, 100 = complete kill
SMILES,Growth inhibition rate (%) Redroot pigweed [1] [%],Growth inhibition rate (%) Soybean [2] [%],Growth inhibition rate (%) Wild oat [3] [%],Growth inhibition rate (%) Crabgrass [4] [%],Growth inhibition rate (%) Italian ryegrass [5] [%],Growth inhibition rate (%) Green foxtail [6] [%],Growth inhibition rate (%) Wheat [7] [%],Growth inhibition rate (%) Barnyardgrass [8] [%],Growth inhibition rate (%) Corn (corn (Zea mays L.)) [%],Growth inhibition rate (%) Rice (rice (Oryza sativa L.)) [%],"Growth inhibition rate (%) Redroot pigweed [1, 9] [%]","Growth inhibition rate (%) Soybean [2, 9] [%]","Growth inhibition rate (%) Wild oat [3, 9] [%]","Growth inhibition rate (%) Crabgrass [4, 9] [%]","Growth inhibition rate (%) Italian ryegrass [5, 9] [%]","Growth inhibition rate (%) Green foxtail [6, 9] [%]","Growth inhibition rate (%) Wheat [7, 9] [%]","Growth inhibition rate (%) Barnyardgrass [8, 9] [%]",Growth inhibition rate (%) Corn (corn (Zea mays L.); [9]) [%],Growth inhibition rate (%) Rice (rice (Oryza sativa L.); [9]) [%]
Cc1ccc(Oc2cnc3cc(Cl)ccc3n2)cc1-c1c(OCc2ccccc2)c(C)nn(C)c1=O [Compound 3-41],20,0,98,95,99,99,99,100,20,10,–,–,–,–,–,–,–,–,–,–
Cc1ccc(Oc2cnc3cc(Cl)ccc3n2)cc1-c1c(OS(=O)(=O)C2CC2)c(C)nn(C)c1=O [Compound 3-70],–,–,–,–,–,–,–,–,–,–,0,10,60,88,40,98,0,98,30,0
CCc1nn(C)c(=O)c(-c2cc(Oc3ncc(C(F)(F)F)cc3Cl)ccc2C)c1OC(C)OC(=O)OC (centres unmarked) [1-139],0,15,88,80,98,60,45,100,50,20,–,–,–,–,–,–,–,–,–,–
CCCSC(=O)Oc1c(C)nn(C)c(=O)c1-c1cc(Oc2cnc3cc(Cl)ccc3n2)ccc1C [Compound 3-56],–,–,–,–,–,–,–,–,–,–,0,30,99,99,98,100,93,98,40,0
Cc1ccc(Oc2cnc3cc(Cl)ccc3n2)cc1-c1c(OC(=O)CC(C)(C)C)c(C)nn(C)c1=O [Compound 3-53],–,–,–,–,–,–,–,–,–,–,0,0,60,93,65,95,0,100,0,40
Cc1ccc(Oc2cnc3cc(Cl)ccc3n2)cc1-c1c(OC(=O)N(C)c2ccccc2)c(C)nn(C)c1=O [Compound 3-66],–,–,–,–,–,–,–,–,–,–,0,0,50,20,40,35,10,10,25,0
Cc1ccc(Oc2cnc3cc(Cl)ccc3n2)cc1-c1c(OC(=O)OC2CC(C)CCC2C(C)C)c(C)nn(C)c1=O (centres unmarked) [Compound 3-61],–,–,–,–,–,–,–,–,–,–,0,0,0,20,0,60,0,0,20,0
Cc1ccc(Oc2ccc3cc(Br)ccc3n2)cc1-c1c(O)c(C)nn(C)c1=O [Compound 2-94],0,0,40,0,20,100,0,100,0,0,–,–,–,–,–,–,–,–,–,–
CCc1nn(C)c(=O)c(-c2cc(Oc3ncc(C(F)(F)F)cc3Cl)ccc2C)c1OCOC [1-138],0,30,90,85,70,60,83,100,83,0,–,–,–,–,–,–,–,–,–,–
Cc1ccc(S(=O)(=O)Oc2c(C)nn(C)c(=O)c2-c2cc(Oc3cnc4cc(Cl)ccc4n3)ccc2C)cc1 [Compound 3-71],–,–,–,–,–,–,–,–,–,–,0,0,99,90,98,100,95,100,0,15
Cc1ccc(Oc2cnc3cc(Cl)ccc3n2)cc1-c1c(OCOCCCl)c(C)nn(C)c1=O [Compound 3-81],–,–,–,–,–,–,–,–,–,–,0,0,95,93,95,99,25,99,0,0
Cc1ccc(Oc2nc3ccc(Cl)cc3o2)cc1-c1c(O)cnn(CC(F)F)c1=O [Compound 2-179],0,0,0,98,0,100,10,88,75,0,–,–,–,–,–,–,–,–,–,–
Cc1ccc(Nc2ncc(C(F)(F)F)cc2Cl)cc1-c1c(O)c(C)nn(C)c1=O [1-144],0,20,10,10,0,60,0,30,10,20,–,–,–,–,–,–,–,–,–,–
COC(=O)OC(C)Oc1cnn(C)c(=O)c1-c1cc(Oc2nc3ccc(Cl)cc3o2)ccc1C (centres unmarked) [Compound 2-178],0,0,95,100,98,100,75,100,83,15,–,–,–,–,–,–,–,–,–,–

# Source: US10870638B2, “Pyridazinone compound or its salt, and herbicide containing it” (ISHIHARA SANGYO KAISHA, LTD., priority 2016, dated 2020)
